Measurements: patent publication US20070049564A1 (Wyeth, priority 2005, published 2007)
Converted amounts (≈) assume the structure as drawn. Like-named read-outs stand apart in the source and are kept apart here.

Tests used:
S. aureus GC 6469 = experiment: MIC, broth microdilution; details: Staphylococcus aureus
E. faecalis GC 2265 = experiment: MIC, broth microdilution; details: Enterococcus faecalis
E. coli GC 4560 = experiment: MIC, broth microdilution; details: Escherichia coli
E. faecalis GC 2242 = experiment: MIC, broth microdilution; details: Enterococcus faecalis
S. agalactiae GC 4564 = experiment: MIC, broth microdilution; details: Streptococcus agalactiae
E. faecalis GC 4555 = experiment: MIC, broth microdilution; details: Enterococcus faecalis
E. coli GC 2235 = experiment: MIC, broth microdilution; details: Escherichia coli
E. coli GC 1073 = experiment: MIC, broth microdilution; details: Escherichia coli
Staph. = experiment: Range of MIC for Staph. strains, including MRSA; details: Staphylococcus aureus
P. aeruginosa GC 2214 = experiment: MIC, broth microdilution; details: Pseudomonas aeruginosa
E. coli GC 2270 = experiment: MIC, broth microdilution; details: Escherichia coli
E. coli GC 4559 = experiment: MIC, broth microdilution; details: Escherichia coli
E. coli GC 2233 = experiment: MIC, broth microdilution; details: Escherichia coli
E. coli GC 2236 = experiment: MIC, broth microdilution; details: Escherichia coli
E. coli GC 2203 = experiment: MIC, broth microdilution; details: Escherichia coli
E. coli GC 2271 = experiment: MIC, broth microdilution; details: Escherichia coli
Description: (§1) Antimicrobial susceptibility testing. The in vitro activities of the antibiotics are determined by the broth microdilution method as recommended by the National Committee for Clinical Laboratory Standards (NCCLS) (1). Mueller-Hinton II broth (MHBII)(BBL Cockeysville, Md.) is the medium employed in the testing procedures. Microtiter plates containing serial dilutions of each antimicrobial agent are inoculated with each organism to yield the appropriate density (10^5 CFU/ml) in a 100 μl final volume. The plates are incubated for 18-22 hours at 35° C. in ambient air.
Representative compounds were first incubated in mouse serum for an hour prior to the in vitro testing against a panel of selected gram-positive and gram-negative bacteria strains. All compounds were also pre-incubated in water for an hour prior to testing as control.

S. aureus GC 6467 = experiment: MIC, broth microdilution; details: Staphylococcus aureus
E. coli GC 6465 = experiment: MIC, broth microdilution; details: Escherichia coli
S. aureus GC 4536 = experiment: MIC, broth microdilution; details: Staphylococcus aureus
E. coli = experiment: Range of MIC for E. coli strains; details: Escherichia coli
Description: as §1
Representative compounds were first incubated in mouse serum for an hour prior to the in vitro testing against a panel of selected gram-positive and gram-negative bacteria strains. All compounds were also pre-incubated in water for an hour prior to testing as control. Representative compounds of Formula I were incubated in human serum prior to MIC determination.

SMILES: Cc1ccc(C(=O)OCOC(=O)N(CC(=O)Nc2cc(N(C)C)c3c(c2O)C(=O)C2=C(O)[C@]4(O)C(=O)C(C(N)=O)=C(O)[C@@H](N(C)C)[C@@H]4C[C@@H]2C3)C(C)(C)C)cc1 [Example 47]
- MIC (S. aureus GC 6469; GC6469, read-out: MINIMAL INHIBITORY CONCENTRATION MIC, pre-incubated in Human Serum): 2 µg/mL (≈ 2.57 µM)
- MIC (S. aureus GC 6469; GC6469, read-out: MINIMAL INHIBITORY CONCENTRATION MIC, pre-incubated in Mouse Serum): 1 µg/mL (≈ 1.29 µM)
- MIC (S. aureus GC 6469; GC6469, read-out: MINIMAL INHIBITORY CONCENTRATION MIC, pre-incubated in Water): 4 µg/mL (≈ 5.14 µM)
- MIC (E. faecalis GC 2265; GC2265, read-out: MINIMAL INHIBITORY CONCENTRATION MIC, pre-incubated in Human Serum): 4 µg/mL (≈ 5.14 µM)
- MIC (E. faecalis GC 2265; GC2265, read-out: MINIMAL INHIBITORY CONCENTRATION MIC, pre-incubated in Mouse Serum): 1 µg/mL (≈ 1.29 µM)
- MIC (E. faecalis GC 2265; GC2265, read-out: MINIMAL INHIBITORY CONCENTRATION MIC, pre-incubated in Water): 4 µg/mL (≈ 5.14 µM)
- MIC (E. coli GC 4560; GC4560, read-out: MINIMAL INHIBITORY CONCENTRATION MIC, pre-incubated in Human Serum): 4 µg/mL (≈ 5.14 µM)
- MIC (E. coli GC 4560; GC4560, read-out: MINIMAL INHIBITORY CONCENTRATION MIC, pre-incubated in Mouse Serum): 1 µg/mL (≈ 1.29 µM)
- MIC (E. coli GC 4560; GC4560, read-out: MINIMAL INHIBITORY CONCENTRATION MIC, pre-incubated in Water): 16 µg/mL (≈ 20.6 µM)
- MIC (E. faecalis GC 2242; GC2242, read-out: MINIMAL INHIBITORY CONCENTRATION MIC, pre-incubated in Human Serum): 4 µg/mL (≈ 5.14 µM)
- MIC (E. faecalis GC 2242; GC2242, read-out: MINIMAL INHIBITORY CONCENTRATION MIC, pre-incubated in Mouse Serum): 1 µg/mL (≈ 1.29 µM)
- MIC (E. faecalis GC 2242; GC2242, read-out: MINIMAL INHIBITORY CONCENTRATION MIC, pre-incubated in Water): 4 µg/mL (≈ 5.14 µM)
- MIC (S. agalactiae GC 4564; GC4564, read-out: MINIMAL INHIBITORY CONCENTRATION MIC, pre-incubated in Human Serum): 1 µg/mL (≈ 1.29 µM)
- MIC (S. agalactiae GC 4564; GC4564, read-out: MINIMAL INHIBITORY CONCENTRATION MIC, pre-incubated in Mouse Serum): 0.5 µg/mL (≈ 0.643 µM)
- MIC (S. agalactiae GC 4564; GC4564, read-out: MINIMAL INHIBITORY CONCENTRATION MIC, pre-incubated in Water): 1 µg/mL (≈ 1.29 µM)
- MIC (E. faecalis GC 4555; GC4555, read-out: MINIMAL INHIBITORY CONCENTRATION MIC, pre-incubated in Human Serum): 4 µg/mL (≈ 5.14 µM)
- MIC (E. faecalis GC 4555; GC4555, read-out: MINIMAL INHIBITORY CONCENTRATION MIC, pre-incubated in Mouse Serum): 1 µg/mL (≈ 1.29 µM)
- MIC (E. faecalis GC 4555; GC4555, read-out: MINIMAL INHIBITORY CONCENTRATION MIC, pre-incubated in Water): 4 µg/mL (≈ 5.14 µM)
- MIC (E. coli GC 2235; GC2235, read-out: MINIMAL INHIBITORY CONCENTRATION MIC, pre-incubated in Human Serum): 16 µg/mL (≈ 20.6 µM)
- MIC (E. coli GC 2235; GC2235, read-out: MINIMAL INHIBITORY CONCENTRATION MIC, pre-incubated in Mouse Serum): 1 µg/mL (≈ 1.29 µM)
- MIC (E. coli GC 2235; GC2235, read-out: MINIMAL INHIBITORY CONCENTRATION MIC, pre-incubated in Water): > 64 µg/mL
- MIC (E. coli GC 1073; GC1073, read-out: MINIMAL INHIBITORY CONCENTRATION MIC, pre-incubated in Human Serum): 32 µg/mL (≈ 41.1 µM)
- MIC (E. coli GC 1073; GC1073, read-out: MINIMAL INHIBITORY CONCENTRATION MIC, pre-incubated in Mouse Serum): 2 µg/mL (≈ 2.57 µM)
- MIC (E. coli GC 1073; GC1073, read-out: MINIMAL INHIBITORY CONCENTRATION MIC, pre-incubated in Water): > 64 µg/mL
- MIC (Staph.; MRSA, read-out: Range of MIC, Staph (Mouse Serum)): 1 to 2 µg/mL (≈ 1.29 to 2.57 µM)
- MIC (Staph.; MRSA, read-out: Range of MIC, Staph (Water)): 2 to 4 µg/mL (≈ 2.57 to 5.14 µM)
- MIC (Staph.; read-out: Minimum inhibitory concentration (MIC), Staph (Human Serum)): 1 to 4 µg/mL (≈ 1.29 to 5.14 µM)
- MIC (Staph.; read-out: Minimum inhibitory concentration (MIC), Staph (Water)): 2 to 4 µg/mL (≈ 2.57 to 5.14 µM)
- MIC (P. aeruginosa GC 2214; GC2214, read-out: MINIMAL INHIBITORY CONCENTRATION MIC, pre-incubated in Human Serum): > 64 µg/mL
- MIC (P. aeruginosa GC 2214; GC2214, read-out: MINIMAL INHIBITORY CONCENTRATION MIC, pre-incubated in Mouse Serum): 32 µg/mL (≈ 41.1 µM)
- MIC (P. aeruginosa GC 2214; GC2214, read-out: MINIMAL INHIBITORY CONCENTRATION MIC, pre-incubated in Water): > 64 µg/mL
- MIC (E. coli GC 2270; GC2270, read-out: MINIMAL INHIBITORY CONCENTRATION MIC, pre-incubated in Human Serum): 16 µg/mL (≈ 20.6 µM)
- MIC (E. coli GC 2270; GC2270, read-out: MINIMAL INHIBITORY CONCENTRATION MIC, pre-incubated in Mouse Serum): 0.5 µg/mL (≈ 0.643 µM)
- MIC (E. coli GC 2270; GC2270, read-out: MINIMAL INHIBITORY CONCENTRATION MIC, pre-incubated in Water): > 64 µg/mL
- MIC (E. coli GC 4559; GC4559, read-out: MINIMAL INHIBITORY CONCENTRATION MIC, pre-incubated in Human Serum): 64 µg/mL (≈ 82.3 µM)
- MIC (E. coli GC 4559; GC4559, read-out: MINIMAL INHIBITORY CONCENTRATION MIC, pre-incubated in Mouse Serum): 2 µg/mL (≈ 2.57 µM)
- MIC (E. coli GC 4559; GC4559, read-out: MINIMAL INHIBITORY CONCENTRATION MIC, pre-incubated in Water): > 64 µg/mL
- MIC (E. coli GC 2233; GC2233, read-out: MINIMAL INHIBITORY CONCENTRATION MIC, pre-incubated in Human Serum): 16 µg/mL (≈ 20.6 µM)
- MIC (E. coli GC 2233; GC2233, read-out: MINIMAL INHIBITORY CONCENTRATION MIC, pre-incubated in Mouse Serum): 0.5 µg/mL (≈ 0.643 µM)
- MIC (E. coli GC 2233; GC2233, read-out: MINIMAL INHIBITORY CONCENTRATION MIC, pre-incubated in Water): > 64 µg/mL
- MIC (E. coli GC 2236; GC2236, read-out: MINIMAL INHIBITORY CONCENTRATION MIC, pre-incubated in Human Serum): 32 µg/mL (≈ 41.1 µM)
- MIC (E. coli GC 2236; GC2236, read-out: MINIMAL INHIBITORY CONCENTRATION MIC, pre-incubated in Mouse Serum): 1 µg/mL (≈ 1.29 µM)
- MIC (E. coli GC 2236; GC2236, read-out: MINIMAL INHIBITORY CONCENTRATION MIC, pre-incubated in Water): > 64 µg/mL
- MIC (E. coli GC 2203; GC2203, read-out: MINIMAL INHIBITORY CONCENTRATION MIC, pre-incubated in Human Serum): 32 µg/mL (≈ 41.1 µM)
- MIC (E. coli GC 2203; GC2203, read-out: MINIMAL INHIBITORY CONCENTRATION MIC, pre-incubated in Mouse Serum): 1 µg/mL (≈ 1.29 µM)
- MIC (E. coli GC 2203; GC2203, read-out: MINIMAL INHIBITORY CONCENTRATION MIC, pre-incubated in Water): > 64 µg/mL
- MIC (E. coli GC 2271; GC2271, read-out: MINIMAL INHIBITORY CONCENTRATION MIC, pre-incubated in Human Serum): 16 µg/mL (≈ 20.6 µM)
- MIC (E. coli GC 2271; GC2271, read-out: MINIMAL INHIBITORY CONCENTRATION MIC, pre-incubated in Mouse Serum): 1 µg/mL (≈ 1.29 µM)
- MIC (E. coli GC 2271; GC2271, read-out: MINIMAL INHIBITORY CONCENTRATION MIC, pre-incubated in Water): > 64 µg/mL
- MIC (S. aureus GC 6467; GC6467, read-out: MINIMAL INHIBITORY CONCENTRATION MIC, pre-incubated in Human Serum): 2 µg/mL (≈ 2.57 µM)
- MIC (S. aureus GC 6467; GC6467, read-out: MINIMAL INHIBITORY CONCENTRATION MIC, pre-incubated in Mouse Serum): 1 µg/mL (≈ 1.29 µM)
- MIC (S. aureus GC 6467; GC6467, read-out: MINIMAL INHIBITORY CONCENTRATION MIC, pre-incubated in Water): 4 µg/mL (≈ 5.14 µM)
- MIC (E. coli GC 6465; GC6465, read-out: MINIMAL INHIBITORY CONCENTRATION MIC, pre-incubated in Human Serum): > 64 µg/mL
- MIC (E. coli GC 6465; GC6465, read-out: MINIMAL INHIBITORY CONCENTRATION MIC, pre-incubated in Mouse Serum): 2 µg/mL (≈ 2.57 µM)
- MIC (E. coli GC 6465; GC6465, read-out: MINIMAL INHIBITORY CONCENTRATION MIC, pre-incubated in Water): > 64 µg/mL
- MIC (S. aureus GC 4536; GC4536, read-out: MINIMAL INHIBITORY CONCENTRATION MIC, pre-incubated in Human Serum): 1 µg/mL (≈ 1.29 µM)
- MIC (S. aureus GC 4536; GC4536, read-out: MINIMAL INHIBITORY CONCENTRATION MIC, pre-incubated in Mouse Serum): 1 µg/mL (≈ 1.29 µM)
- MIC (S. aureus GC 4536; GC4536, read-out: MINIMAL INHIBITORY CONCENTRATION MIC, pre-incubated in Water): 4 µg/mL (≈ 5.14 µM)
- MIC (E. coli; 20 h, read-out: Range of MIC, E. coli (Mouse Serum)): 0.5 to 2 µg/mL (≈ 0.643 to 2.57 µM)
- MIC (E. coli; read-out: Minimum inhibitory concentration (MIC), E. coli (water)): > 64 µg/mL
- MIC (E. coli; read-out: Range of MIC, E. coli (Water)): > 64 µg/mL
